In patent US20250171438A1 (Agios Pharmaceuticals, Inc., priority 2022, published 2025) one finds AC50 data, which are given here for 43 compounds.

The term AC50 denotes the concentration giving half of the maximal activity seen.

Where only a bound is given, the exact number is not on record here.

The target of the first assay is T1, human PAH with the R408W mutation (Homo sapiens, UniProt P00439, R408W).
T1 construct: expressed in transfected cells
T1 sequence (P00439 1-452 R408W): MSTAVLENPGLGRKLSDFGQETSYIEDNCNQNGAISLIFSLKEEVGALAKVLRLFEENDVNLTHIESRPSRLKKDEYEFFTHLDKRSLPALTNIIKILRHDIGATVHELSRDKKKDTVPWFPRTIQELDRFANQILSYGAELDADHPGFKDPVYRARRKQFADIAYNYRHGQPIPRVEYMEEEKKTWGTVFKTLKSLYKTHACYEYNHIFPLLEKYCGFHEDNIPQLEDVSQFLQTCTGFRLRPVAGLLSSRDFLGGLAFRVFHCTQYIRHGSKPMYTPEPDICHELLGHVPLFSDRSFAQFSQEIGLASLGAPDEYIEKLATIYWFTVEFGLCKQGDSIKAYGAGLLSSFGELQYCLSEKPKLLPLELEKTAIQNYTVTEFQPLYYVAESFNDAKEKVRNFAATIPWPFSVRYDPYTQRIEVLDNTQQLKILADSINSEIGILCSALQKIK
Nature of the assay: Cell Based Phenylalanine Flux Assay. The note with it: A375 cells expressing human R408W PAH; 24 hrs compound incubation; 13C-Tyrosine by LC-MS; average where tested multiple times; read-out: AC50.
In the case of `O=C(c1cncs1)N1CCc2[nH]cnc2[C@@H]1c1nc2ccccc2[nH]1` [Example 915, (R)-(4-(1H-benzo[d]imidazol-2-yl)-6,7-dihydro-1H-imidazo[4,5-c]pyridin-5(4H)-yl)(thiazol-5-yl)methanone], the AC50 was greater than 5 µM.
In the case of `O=C(c1cn(CC(F)(F)F)nc1Cl)N1CCc2[nH]cnc2[C@@H]1c1nc2c(F)cccc2s1` [Example 1763, (R)-(3-chloro-1-(2,2,2-trifluoroethyl)-1H-pyrazol-4-yl)(4-(4-fluorobenzo[d]thiazol-2-yl)-6,7-dihydro-1H-imidazo[4,5-c]pyridin-5(4H)-yl)methanone], the AC50 lay within 1 to 5 µM.
Still for that read-out and setting: the value for `CC(C)(O)c1nc(Br)c(C(=O)N2CCc3[nH]cnc3[C@H]2c2nc3ccccc3s2)s1` [Example 2107] was less than 0.5 µM.
The same measure, in the same setting: then `Cc1nn(C)c(C)c1-c1ncc(C(=O)N2CCc3[nH]cnc3[C@@H]2c2nc3ccccc3s2)s1` [Example 1406, (R)-(4-(benzo[d]thiazol-2-yl)-6,7-dihydro-1H-imidazo[4,5-c]pyridin-5(4H)-yl)(2-(1,3,5-trimethyl-1H-pyrazol-4-yl)thiazol-5-yl)methanone], with 0.5 to 1 µM; and `O=C(CC1CC1)N1CCc2[nH]cnc2[C@@H]1c1nc2ccc(Br)cc2[nH]1` [Example 946, (R)-1-(4-(6-bromo-1H-benzo[d]imidazol-2-yl)-6,7-dihydro-1H-imidazo[4,5-c]pyridin-5(4H)-yl)-2-cyclopropylethanone], with 0.5 to 1 µM.
On the same count and under the same terms, then `Cc1nc(CN(C)C)oc1C(=O)N1CCc2[nH]cnc2[C@H]1c1nc2ccccc2s1` [Example 1693], with 0.5 to 1 µM; and `Cc1nc([C@H](C)O)oc1C(=O)N1CCc2[nH]cnc2[C@@H]1c1nc2c(F)cccc2s1` [Example 1912, ((R)-4-(4-fluorobenzo[d]thiazol-2-yl)-6,7-dihydro-1H-imidazo[4,5-c]pyridin-5(4H)-yl)(2-((S)-1-hydroxyethyl)-4-methyloxazol-5-yl)methanone], with greater than 5 µM; and `Cc1cc(C2(C(=O)N3CCc4[nH]cnc4[C@H]3c3nc4ccccc4s3)CC2)on1` [Example 1549], with less than 0.5 µM.
For `Cc1ncoc1C(=O)N1C[C@@H](C)c2[nH]cnc2[C@H]1c1nc2ccccc2s1` [Example 1547, ((4S,7R)-4-(benzo[d]thiazol-2-yl)-7-methyl-6,7-dihydro-1H-imidazo[4,5-c]pyridin-5(4H)-yl)(4-methyloxazol-5-yl)methanone], the AC50 was in the range of 1 to 5 µM.
Same read-out and setting: then `CC(C)(C)c1ncc(C(=O)N2CCc3[nH]cnc3[C@H]2c2nc3ccccc3s2)o1` [Example 1427], with less than 0.5 µM; and `Cn1cc(-c2ncc(C(=O)N3CCc4[nH]cnc4[C@H]3c3nc4ccccc4s3)s2)c(C(F)(F)F)n1` [Example 1389], with less than 0.5 µM.
As to `O=C(c1nnc(-c2cnn(C3CCC3)c2)o1)N1CCc2[nH]cnc2[C@@H]1c1nc2ccccc2s1` [Example 1827, (R)-(4-(benzo[d]thiazol-2-yl)-6,7-dihydro-1H-imidazo[4,5-c]pyridin-5(4H)-yl)(5-(1-cyclobutyl-1H-pyrazol-4-yl)-1,3,4-oxadiazol-2-yl)methanone], the AC50 is 1 to 5 µM.
Still for that read-out and setting: the value for `O=C(c1oc(N2CCC(F)CC2)nc1C(F)F)N1CCc2[nH]cnc2[C@@H]1c1nc2ccccc2s1` [Example 1708, (R)-(4-(benzo[d]thiazol-2-yl)-6,7-dihydro-1H-imidazo[4,5-c]pyridin-5(4H)-yl)(4-(difluoromethyl)-2-(4-fluoropiperidin-1-yl)oxazol-5-yl)methanone] was less than 0.5 µM; that for `CC(C)(O)c1nc(C(F)F)c(C(=O)N2CCc3[nH]cnc3[C@@H]2c2nc3c(F)cccc3s2)s1` [Example 2086, (R)-(4-(difluoromethyl)-2-(2-hydroxypropan-2-yl)thiazol-5-yl)(4-(4-fluorobenzo[d]thiazol-2-yl)-6,7-dihydro-1H-imidazo[4,5-c]pyridin-5(4H)-yl)methanone] was 0.5 to 1 µM; that for `Cc1nnc(CCC(=O)N2CCc3[nH]cnc3[C@@H]2c2nc3ccccc3s2)s1` [Example 1020, (R)-1-(4-(benzo[d]thiazol-2-yl)-6,7-dihydro-1H-imidazo[4,5-c]pyridin-5(4H)-yl)-3-(5-methyl-1,3,4-thiadiazol-2-yl)propan-1-one] was greater than 5 µM.
The same measure, in the same setting: the value for `CC(C)(O)c1nc(Br)c(C(=O)N2CCc3[nH]cnc3[C@@H]2c2nc3ccccc3s2)o1` [Example 2090, (R)-(4-(benzo[d]thiazol-2-yl)-6,7-dihydro-1H-imidazo[4,5-c]pyridin-5(4H)-yl)(4-bromo-2-(2-hydroxypropan-2-yl)oxazol-5-yl)methanone] was 1 to 5 µM; that for `O=C(c1nnc(-c2cc(C(F)(F)F)ccn2)o1)N1CCc2[nH]cnc2[C@@H]1c1nc2c(F)cccc2s1` [Example 1905, (R)-(4-(4-fluorobenzo[d]thiazol-2-yl)-6,7-dihydro-1H-imidazo[4,5-c]pyridin-5(4H)-yl)(5-(4-(trifluoromethyl)pyridin-2-yl)-1,3,4-oxadiazol-2-yl)methanone] was 0.5 to 1 µM; that for `O=C(CCc1ncc(Cl)s1)N1CCc2[nH]cnc2[C@H]1c1nc2ccccc2s1` [Example 1025] was 1 to 5 µM.
On the same count and under the same terms, the value for `O=C(CCc1nccs1)N1CCc2[nH]cnc2[C@H]1c1ncc(-c2ccccc2)s1` [Example 2141] was less than 0.5 µM; that for `O=C(c1nnc(-c2cnn(C(F)F)c2)o1)N1CCc2[nH]cnc2[C@@H]1c1nc2c(F)cccc2s1` [Example 1823, (R)-(5-(1-(difluoromethyl)-1H-pyrazol-4-yl)-1,3,4-oxadiazol-2-yl)(4-(4-fluorobenzo[d]thiazol-2-yl)-6,7-dihydro-1H-imidazo[4,5-c]pyridin-5(4H)-yl)methanone] was 1 to 5 µM.
Turning to `Cc1cccc2sc([C@@H]3c4nc[nH]c4CCN3C(=O)c3ccnn3C)nc12` [Example 2021], the AC50 was in the range of 0.5 to 1 µM.
The same measure, in the same setting: the value for “(R)-(5-(difluoromethyl)-1-methyl-1H-pyrazol-4-yl)(4-(4-fluorobenzo[d]thiazol-2-yl)-6,7-dihydro-1H-imidazo[4,5-c]pyridin-5(4H)-yl)methanone [Example 1744]” was 1 to 5 µM; that for `O=C(c1nnc(-c2cnn(CC(F)F)c2)o1)N1CCc2[nH]cnc2[C@@H]1c1nc2ccccc2s1` [Example 1872, (R)-(4-(benzo[d]thiazol-2-yl)-6,7-dihydro-1H-imidazo[4,5-c]pyridin-5(4H)-yl)(5-(1-(2,2-difluoroethyl)-1H-pyrazol-4-yl)-1,3,4-oxadiazol-2-yl)methanone] was 1 to 5 µM.
On the same count and under the same terms, then `O=C(c1ncc(Cl)s1)N1CCc2[nH]cnc2[C@@H]1c1nc2cc(F)ccc2s1` [Example 1262, (R)-(5-chlorothiazol-2-yl)(4-(5-fluorobenzo[d]thiazol-2-yl)-6,7-dihydro-1H-imidazo[4,5-c]pyridin-5(4H)-yl)methanone], with 1 to 5 µM.
Turning to `O=C(c1oc(-c2ccccn2)nc1C1CC1)N1CCc2[nH]cnc2[C@@H]1c1nc2ccccc2s1` [Example 1516, (R)-(4-(benzo[d]thiazol-2-yl)-6,7-dihydro-1H-imidazo[4,5-c]pyridin-5(4H)-yl)(4-cyclopropyl-2-(pyridin-2-yl)oxazol-5-yl)methanone], the AC50 is greater than 5 µM.
The same measure, in the same setting: then `O=C(c1cnc(C(F)(F)F)s1)N1CCc2[nH]cnc2[C@@H]1c1nc2ccccc2s1` [Example 1182, (R)-(4-(benzo[d]thiazol-2-yl)-6,7-dihydro-1H-imidazo[4,5-c]pyridin-5(4H)-yl)(2-(trifluoromethyl)thiazol-5-yl)methanone], with 1 to 5 µM.

The assay is the same for the next values; noted with them: A375 cells expressing human R408W PAH; 24 hrs with compound; 13C-Tyrosine by LC-MS; average where tested multiple times; read-out: AC50.
For `Cc1ccc2c(C(=O)N3CCc4[nH]cnc4C3c3nc4ccc(Br)cc4[nH]3)cnn2c1` (stereo not shown), the concentration at half-maximal activity (AC50) was greater than 5 µM.
Still for that read-out and setting: then `COc1ccn2ncc(C(=O)N3CCc4[nH]cnc4C3c3nc4ccc(Br)cc4[nH]3)c2c1` (stereo not shown), with 1 to 5 µM; and `O=C(CCc1nccs1)N1CCc2nc[nH]c2C1c1nc2c(Cl)cccc2s1` (stereo not shown), with 1 to 5 µM.
The same measure, in the same setting: the value for `O=C(c1ocnc1CO)N1CC2(CC2)c2[nH]cnc2C1c1nc2ccccc2s1` (stereo not shown) was greater than 5 µM; that for `COCc1ncc(C(=O)N2CCc3[nH]cnc3C2c2nc3c(F)cccc3s2)o1` (stereo not shown) was 1 to 5 µM; that for `O=C(Cc1nc(C(F)(F)F)cs1)N1CCc2[nH]cnc2C1c1nc2ccc(Cl)cc2[nH]1` (stereo not shown) was 1 to 5 µM.
For the compound `CC(C)(O)Cn1cc(C(=O)N2CCc3[nH]cnc3C2c2nc3c(F)cccc3s2)cn1` (stereo not shown), the AC50 fell in the range of 1 to 5 µM.
The same measure, in the same setting: the value for `O=C(C1CC1)N1CCc2[nH]cnc2C1c1nc2cc(F)ccc2s1` (stereo not shown) was greater than 5 µM; that for `O=C(Cc1nccs1)N1CCc2[nH]cnc2C1c1nc2cccc(F)c2s1` (stereo not shown) was 1 to 5 µM.
On the same count and under the same terms, the value for `Cc1nc(C(C)(C)O)oc1C(=O)N1CC(C)c2[nH]cnc2C1c1nc2c(F)cccc2s1` (stereo not shown) was 1 to 5 µM.
Same read-out and setting: the value for `O=C(c1nccs1)N1CCc2[nH]cnc2C1c1nc2cccc(F)c2[nH]1` (stereo not shown) was 1 to 5 µM; that for `c1ccc2sc(C3c4nc[nH]c4CCN3c3nnc(C4CC4)o3)nc2c1` (stereo not shown) was 1 to 5 µM.
Consider `O=C(CCc1cccs1)N1CCc2[nH]cnc2C1c1nc2ccccc2[nH]1` (stereo not shown), for which the AC50 was 1 to 5 µM.
Still for that read-out and setting: the value for `Cc1nc(C(=O)N2CCc3[nH]cnc3C2c2nc3ccccc3s2)no1` (stereo not shown) was greater than 5 µM; that for `O=C(c1ccno1)N1CCc2nc[nH]c2C1c1nc2c(F)cccc2s1` (stereo not shown) was 1 to 5 µM.
For `COc1cccc(C=CC(=O)N2CCc3[nH]cnc3C2c2nc3ccccc3[nH]2)c1` (stereo not shown), the AC50 lay within 1 to 5 µM.
Still for that read-out and setting: the value for `O=C(c1nnc(CCNC2CC2)o1)N1CCc2[nH]cnc2C1c1nc2ccccc2s1` (stereo not shown) was 1 to 5 µM.
